Test results: US20140329682A1, “METHOD OF CONTROLLING WEED IN A SUGAR CANE FIELD” (SUMITOMO CHEMICAL COMPANY, LIMITED, priority 2011, published 2014)

Assays:
Amaranthus retroflexus [1] = experiment: Herbicidal activity, soil surface spray after planting (Example 4); type: in vivo; details: 3 cm stem cutting, one node, soil surface spray on date of planting, four weeks after treatment
sugar cane [2] = experiment: Phytotoxicity on sugar cane, soil surface spray after planting (Example 4)
Description: (§1) The “phytotoxicity” evaluated herein is the damage characteristic determined to be due to a treated compound, and is clearly discriminated from the damage characteristic caused by a harmful animal or plant disease.
(§2) A 30 cm to 40 cm stem cutting of sugar cane is placed on a wet soil, and germination is stimulated. The stem cutting from which a bud has grown to about 1 cm is selected, and the length of the stem cutting is adjusted to be 3 cm so that the stem cutting has one node. A soil is packed into a plastic pot, and seeds of Amaranthus retroflexus are seeded thereon. The stem cutting of sugar cane is planted in the soil packed in the pot at a depth of 2 cm. […] Thereafter, the pot for a test is placed in a greenhouse.

Amaranthus retroflexus [3] = experiment: Herbicidal activity, spray above weed one week before planting (Example 5); type: in vivo; details: sprayed above weed three weeks after seeding, 3 cm stem cutting planted one week after treatment, four weeks after treatment
Method: A soil is packed into a plastic pot, and seeds of Amaranthus retroflexus are seeded thereon. Thereafter, the pot is placed in a greenhouse, and the weed is grown.
A 30 cm to 40 cm stem cutting of sugar cane is placed on a wet soil, and germination is stimulated. The stem cutting from which a bud has been grown to about 1 cm is selected, and the length of the stem cutting is adjusted to be 3 cm so that the stem cutting has one node.

sugar cane [4] = experiment: Phytotoxicity on sugar cane, soil surface spray, insecticide-treated stem cutting (Example 6)
Description: as §1
as §2, with “one node. Clothianidin, thiamethoxiam, imidacloprid, dinotefuran, nitenpyram, acetamiprid or thiacloprid is adhered to the stem cutting. A soil” for “one node. A soil”, “sugar cane treated with clothianidin, thiamethoxiam, imidacloprid, dinotefuran, nitenpyram, acetamiprid or thiacloprid is planted” for “sugar cane is planted”, “soil packed into the pot” for “soil packed in the pot”

sugar cane [5] = experiment: Phytotoxicity on sugar cane, spray above weed before planting, azole-fungicide-treated stem cutting (Example 11)
Method: as §1
A soil is packed into a plastic pat, and seeds of Amaranthus retroflexus are seeded thereon. Thereafter, the pot is placed in a greenhouse, and the weed is grown.
A 30 cm to 40 cm stem cutting of sugar cane is placed on a wet soil, and germination is stimulated. The stem cutting from which a bud has grown to about 1 cm is selected, and the length of the stem cutting is adjusted to be 3 cm so that the stem cutting has one node. Azaconazole, bitertanol, bromoconazole, cyproconazole, difenoconazole, diniconazole, epoxyconazole, fenbuconazole, fluquinconazole, flusilazole, flutriafol, hexaconazole, imibenconazole, ipconazole, metconazole, myclobutanil, penconazole, propiconazole, prothioconazole, simeconazole, tebuconazole, tetraconazole, triadimenol, triticonazole, fenarimol, nuarimol, pyrifenox, imazalil, oxpoconazole fumarate, pefurazoate, procloraz or triflumizole is adhered to the stem cutting.
The pot for a test is placed in a greenhouse.

Amaranthus retroflexus [6] = experiment: Herbicidal activity, soil surface spray, metalaxyl-treated stem cutting (Example 12); type: in vivo; details: 3 cm stem cutting treated with metalaxyl or metalaxyl-M, four weeks after treatment
Method: A soil is packed into a plastic pot. Seeds of Amaranthus retroflexus are seeded thereon.

sugar cane [7] = experiment: Phytotoxicity on sugar cane, soil surface spray, metalaxyl-treated stem cutting (Example 12)
Description: as §1
as §2, with “one node. Metalaxyl or metalaxyl-M is adhered to the stem cutting. A soil” for “one node. A soil”, “a plastic pot. Seeds of Amaranthus” for “a plastic pot, and seeds of Amaranthus”, “sugar cane treated with metalaxyl or metalaxyl-M is planted” for “sugar cane is planted”, “soil packed into the pot” for “soil packed in the pot”

Amaranthus retroflexus [8] = experiment: Herbicidal activity, spray from upper side of pot, sugar cane at 4 to 5 leaves (Example 3); type: in vivo; details: 70 g (active ingredient)/ha, four weeks after treatment, scale 0 to 100
Method: A sugar cane, a foliage of which had grown to about 4 to 5 leaves, was selected, and the length of the stem cutting was adjusted to be 8 cm or 25 cm. The 8 cm stem cutting had one node, and the 25 cm stem cutting had two nodes. A soil was packed into a 32 cm×25 cm×11 cm plastic pot, and seeds of Amaranthus retroflexus were seeded thereon. […] On the date when the stem cutting was planted, and after planting of the stem cutting, a water-diluted liquid of saflufenacil (140 ppm) was uniformly sprayed with a sprayer from an upper side of the pot at an amount described in Table 3. The water-diluted liquid of saflufenacil was prepared by dissolving a predetermined amount of saflufenacil in acetone containing 2% (w/v) Tween 20, and diluting this solution with water so that the acetone concentration became 10% by volume. Thereafter, the pot for a test was placed in a greenhouse. One week after treatment with saflufenacil, phytotoxicity on sugar cane was determined and, four weeks after treatment with saflufenacil, the herbicidal activity against Amaranthus retroflexus was determined.

Amaranthus retroflexus [9] = experiment: Herbicidal activity, soil surface spray on day of planting (Example 1); type: in vivo; details: four weeks after treatment, scale 0 to 100
Method: The stem cutting from which a bud had grown to about 1 cm was selected, and the length of the stem cutting was adjusted to be 3 cm, 15 cm or 25 cm. The stem cutting of 3 cm or 15 cm had only one node, and the stem cutting of 25 cm had two nodes. A soil was packed into a 32 cm×25 cm×11 cm plastic pot, and seeds of Amaranthus retroflexus were seeded thereon. […] On the date when the stem cutting was planted, and after planting of the stem cutting, a water-diluted liquid of a flumioxazin water dispersible granule (water dispersible granule containing 51% floumioxazin, trade name: Valor SX, manufactured by Valent USA Corporation) (100 ppm or 250 ppm) was uniformly sprayed on the soil surface with a sprayer at an amount described in Table 1. Thereafter, the pot for a test was placed in a greenhouse. Four weeks after treatment with flumioxazin, phytotoxicity on sugar cane and the herbicidal activity against Amaranthus retroflexus were determined.

[10] = Example 4, 3 cm stem cutting, one node, soil surface spray on date of planting, four weeks after treatment
[11] = Example 6, 3 cm stem cutting treated with clothianidin, thiamethoxiam, imidacloprid, dinotefuran, nitenpyram, acetamiprid or thiacloprid, soil surface spray, four weeks after treatment
[12] = Example 11, sprayed above weed, 3 cm stem cutting treated with azaconazole, bitertanol or another listed azole-type fungicide planted one week after treatment, four weeks after treatment
[13] = Example 12, 3 cm stem cutting treated with metalaxyl or metalaxyl-M, soil surface spray, four weeks after treatment

Row | Structure (SMILES) | herbicidal activity against Amaranthus retroflexus (Amaranthus retroflexus [1]) | phytotoxicity (sugar cane [2]; in vivo) | herbicidal activity against Amaranthus retroflexus (Amaranthus retroflexus [3]) | phytotoxicity (sugar cane [4]; in vivo) | phytotoxicity (sugar cane [5]; in vivo) | herbicidal activity against Amaranthus retroflexus (Amaranthus retroflexus [6]) | phytotoxicity (sugar cane [7]; in vivo) | phytotoxicity (sugar cane [2]; [10]) | phytotoxicity (sugar cane [4]; [11]) | phytotoxicity (sugar cane [5]; [12]) | phytotoxicity (sugar cane [7]; [13]) | Herbicidal activity (Amaranthus retroflexus [8]; stem cutting 8 cm) | Herbicidal activity (Amaranthus retroflexus [8]; stem cutting 25 cm) | Herbicidal activity (Amaranthus retroflexus [9]; 50 g (active ingredient)/ha, stem cutting 3 cm) | Herbicidal activity (Amaranthus retroflexus [9]; 50 g (active ingredient)/ha, stem cutting 15 cm) | Herbicidal activity (Amaranthus retroflexus [9]; 50 g (active ingredient)/ha, stem cutting 25 cm) | Herbicidal activity (Amaranthus retroflexus [9]; 125 g (active ingredient)/ha, stem cutting 3 cm) | Herbicidal activity (Amaranthus retroflexus [9]; 125 g (active ingredient)/ha, stem cutting 15 cm) | Herbicidal activity (Amaranthus retroflexus [9]; 125 g (active ingredient)/ha, stem cutting 25 cm)
1 | CC(C)Oc1cc(-n2nc(C(C)(C)C)oc2=O)c(Cl)cc1Cl [oxadiazon] | the controlling effect on a weed can be confirmed | significant phytotoxicity on sugar cane is not observed | the controlling effect on a weed can be confirmed | significant phytotoxicity on sugar cane is not observed | significant phytotoxicity on sugar cane is not observed | the controlling effect on a weed can be confirmed | significant phytotoxicity on sugar cane is not observed |  |  |  |  |  |  |  |  |  |  |  | 
2 | CCOc1cc(Oc2ccc(C(F)(F)F)cc2Cl)ccc1[N+](=O)[O-] [oxyfluorfen] | the controlling effect on a weed can be confirmed |  | the controlling effect on a weed can be confirmed |  |  | the controlling effect on a weed can be confirmed |  | significant phytotoxicity on sugar cane is not observed | significant phytotoxicity on sugar cane is not observed | significant phytotoxicity on sugar cane is not observed | significant phytotoxicity on sugar cane is not observed |  |  |  |  |  |  |  | 
3 | CC(C)N(C)S(=O)(=O)NC(=O)c1cc(-n2c(=O)cc(C(F)(F)F)n(C)c2=O)c(F)cc1Cl [Saflufenacil, saflufenacil] | the controlling effect on a weed can be confirmed |  | the controlling effect on a weed can be confirmed |  |  | the controlling effect on a weed can be confirmed |  | significant phytotoxicity on sugar cane is not observed | significant phytotoxicity on sugar cane is not observed | significant phytotoxicity on sugar cane is not observed | significant phytotoxicity on sugar cane is not observed | 100 | 100 |  |  |  |  |  | 
4 | C#CCN1C(=O)COc2cc(F)c(-n3c(=O)n(C)c(=S)n(C)c3=O)cc21 [compound of the formula (I)] | the controlling effect on a weed can be confirmed | significant phytotoxicity on sugar cane is not observed | the controlling effect on a weed can be confirmed | significant phytotoxicity on sugar cane is not observed | significant phytotoxicity on sugar cane is not observed | the controlling effect on a weed can be confirmed | significant phytotoxicity on sugar cane is not observed |  |  |  |  |  |  |  |  |  |  |  | 
5 | Cc1nn(-c2cc(NS(C)(=O)=O)c(Cl)cc2Cl)c(=O)n1C(F)F [sulfentrazone] | the controlling effect on a weed can be confirmed | significant phytotoxicity on sugar cane is not observed | the controlling effect on a weed can be confirmed | significant phytotoxicity on sugar cane is not observed | significant phytotoxicity on sugar cane is not observed | the controlling effect on a weed can be confirmed | significant phytotoxicity on sugar cane is not observed |  |  |  |  |  |  |  |  |  |  |  | 
6 | C#CCN1C(=O)COc2cc(F)c(N3C(=O)C4=C(CCCC4)C3=O)cc21 [Flumioxazin, flumioxazin] |  |  | the controlling effect on a weed can be confirmed |  |  | the controlling effect on a weed can be confirmed |  |  | significant phytotoxicity on sugar cane is not observed | significant phytotoxicity on sugar cane is not observed | significant phytotoxicity on sugar cane is not observed |  |  | 100 | 100 | 100 | 100 | 100 | 100
